The values that follow come from article PMC6033295, “The Effects of the Honey-Roasting Process on the Pharmacokinetics of the Six Active Compounds of Licorice” (Evidence-based Complementary and Alternative Medicine : eCAM, 2018).

Data set [1] is described as follows: Pharmacokinetic study in rats after oral administration of raw/honey-roasting licorice water decoction (UPLC-MS/MS of plasma). The class given is in vivo, Wistar rats. The following applies: for AUC0-24h / Tmax / AUC(0-t) / Cmax: rat plasma, 2.7 g (crude drug)/kg, n = 5; for AUC(0-t): read-out: AUC0-24h. As for the experimental part:
Healthy male Wistar rats (weighing 200 ± 20 g) were obtained from the Laboratory Animal Centre of Shanghai Jiao Tong University (Shanghai, China). […] All protocols and procedures were approved by the Shanghai Jiao Tong University Animal Care and Use Committee.
Chromatographic separation was performed on a ZORBAX Eclipse Plus C18 column (50 mm × 2.1 mm, 1.8 µm). […] The flow rate was set at 0.4 mL/min. The column temperature and injection volume were set at 40°C and 2.0 µL, respectively. An MS system operating in negative electrospray ionization mode was employed in this study. […] The DP for each compound and IS were -120, -100, -100, -100, -100, -80, and -100 V, respectively. The collision energy for each compound and IS were -58, -32, -42, -32, -32, -65, and -20 V, respectively. The ion spray needle voltage was set at -4500 V, and the source temperature was 500°C. Following optimization of the setting parameters, the ESI source was operated with the GS1, GS2, and CUR (Nitrogen) set at 35, 35, and 40 psi, respectively.
Fifty microliters of the plasma samples (or standard plasma samples and QC samples) were spiked with 5 µL of IS solution (10.00 µg/mL) and 200 µL of acetonitrile. The mixture was vortexed for 30 s and centrifuged at 14,000 rpm for 15 min at 4°C. The supernatant was collected and evaporated in a 37°C water bath under a nitrogen stream. The residue was redissolved with 500 µL of 70% acetonitrile.
After being housed in a controlled environment for a week, rats were randomly divided into three groups (n = 5 for each group) and were then orally administered a raw, 25% honey-roasting, or 50% honey-roasting licorice water decoction at a dosage of 2.7 g (crude drug)/kg. Blood samples of 0.15 mL were taken from the suborbital vein into heparinized tubes at 0.17, 0.5, 1, 1.5, 2, 2.5, 3, 4, 6, 8, 12, and 24 h after oral administration of the licorice water decoction. The blood samples were immediately centrifuged at 10,000 rpm for 15 min. The separated plasma samples were frozen at -80°C before analysis.
The pharmacokinetic parameters of the six compounds were calculated by […] 4.4.1 (Thermo Electron Corporation, Philadelphia, PA, USA) software. […] Data were presented as the mean ± SD. Statistical analyses of all the data obtained were evaluated using one-way ANOVA (SPSS 17.0).

A short description of data set [2]: Stability of six compounds in rat plasma (QC samples). The following applies: n = 6. In kind it is in vitro ADME. As for the experimental part: The stabilities of the six compounds in rat plasma were evaluated by analyzing QC samples under different conditions. […] Long-term stability was tested by storing QC samples at -80°C for one month. RSD was evaluated by analyzing six replicate samples. The stability of the six compounds was evaluated under various conditions.

Details of data set [3]: method as in PMID 8197226, PMID 1432618. The conditions noted are these: cited from earlier work.
The mark [4] stands for this setting: oral 25% honey-roasting licorice water decoction.
[5] abbreviates: oral 50% honey-roasting licorice water decoction.
[6] abbreviates: oral raw licorice water decoction.
Setting [7] is: At 4°C for 24 h, postpreparative QC sample in autosampler, high concentration level.
[8] abbreviates: At 4°C for 24 h, postpreparative QC sample in autosampler, low concentration level.
Setting [9] is: At 4°C for 24 h, postpreparative QC sample in autosampler, medium concentration level.
Setting [10] is: At -80°C for 1 month, rat plasma QC sample, high concentration level.
Setting [11] is: At -80°C for 1 month, rat plasma QC sample, low concentration level.
[12] abbreviates: male, Wistar, rat, plasma, po, oral 25% honey-roasting licorice water decoction.
Where [13] appears, read: male, Wistar, rat, plasma, po, oral 25% honey-roasting licorice water decoction, read-out: Cmax.
Setting [14] is: male, Wistar, rat, plasma, po, oral 25% honey-roasting licorice water decoction, read-out: Tmax.
Where [15] appears, read: male, Wistar, rat, plasma, po, oral 50% honey-roasting licorice water decoction.
Setting [16] is: male, Wistar, rat, plasma, po, oral 50% honey-roasting licorice water decoction, read-out: Cmax.
[17] abbreviates: male, Wistar, rat, plasma, po, oral 50% honey-roasting licorice water decoction, read-out: Tmax.
The mark [18] stands for this setting: male, Wistar, rat, plasma, po, oral raw licorice water decoction.
Where [19] appears, read: male, Wistar, rat, plasma, po, oral raw licorice water decoction, read-out: Cmax.
Setting [20] is: At -80°C for 1 month, rat plasma QC sample, medium concentration level.
The mark [21] stands for this setting: 25% honey-roasting group vs raw group, rat, oral.
The mark [22] stands for this setting: male, Wistar, rat, in vivo, po, oral 50% honey-roasting licorice water decoction.

Each structure is given as a SMILES string. Where two headings read alike, the source gives them in different places.

As a reminder, the Tmax is the time at which the peak concentration occurs. On to `O=C1C[C@@H](c2ccc(O)cc2)Oc2cc(O)ccc21` [LG, liquiritigenin], for which the AUC0-24h in data set [1] (setting [4]) was 85.36 ± 14.70 ng·h/mL; in data set [1] (setting [5]) it was 47.74 ± 8.03^∗Δ h·ng /mL; in data set [1] (setting [6]) it was 84.29 ± 33.71 ng·h/mL. Further, the Tmax is given as 2.3 h in data set [1] (setting [4]), 2.5 h in data set [1] (setting [5]) and 2.4 h in data set [1] (setting [6]). Further, the “Stability, Average” value in data set [2] (setting [7]) is 93.9%; in data set [2] (setting [8]), 90.8%; in data set [2] (setting [9]), 87.7%; in data set [2] (setting [10]), 96.5%; in data set [2] (setting [11]), 92.8%.
For orientation: Cmax means the highest concentration seen after dosing. `CC1(C)[C@@H](O)CC[C@]2(C)[C@H]3C(=O)C=C4[C@@H]5C[C@@](C)(C(=O)O)CC[C@]5(C)CC[C@@]4(C)[C@]3(C)CC[C@@H]12` [GA, glycyrrhetinic acid]: the AUC(0-t) was 7000 ± 1290 ng·h/mL in data set [1] (setting [12]), 5180 ± 2540 ng·h/mL in data set [1] (setting [15]) and 6980 ± 4800 ng·h/mL in data set [1] (setting [18]). In addition, the Cmax in data set [1] (setting [13]) came out at 651 ± 200 ng/mL; in data set [1] (setting [16]) it was 608 ± 278 ng/mL; in data set [1] (setting [19]), 572 ± 311 ng/mL. The Tmax in data set [1] (setting [14]) was 6.8 h; in data set [1] (setting [17]) it was 6.8 h; in data set [1] (setting [6]), 8.0 h. Also, the “Stability, Average” value in data set [2] (setting [7]) is given as 100.9%; in data set [2] (setting [8]), 96.4%; in data set [2] (setting [9]), 96.2%; in data set [2] (setting [11]), 96.2%; in data set [2] (setting [20]) it was 102.1%.
For the molecule `CC1(C)[C@@H](O[C@H]2O[C@H](C(=O)O)[C@@H](O)[C@H](O)[C@H]2O[C@@H]2O[C@H](C(=O)O)[C@@H](O)[C@H](O)[C@H]2O)CC[C@]2(C)[C@H]3C(=O)C=C4[C@@H]5C[C@@](C)(C(=O)O)CC[C@]5(C)CC[C@@]4(C)[C@]3(C)CC[C@@H]12` [Glycyrrhizin, glycyrrhizin], the oral bioavailability result in data set [3] is listed as “extremely low”.
On to `O=C(/C=C/c1ccc(O)cc1)c1ccc(O)cc1O` [ILG, isoliquiritigenin], for which the “Cmax higher than in the raw group” value in data set [1] (setting [21]) stood at 49.3%. For the same molecule, the “AUC0-24h increased over the raw licorice group” value in data set [1] (honey-roasting licorice vs raw licorice group, rat, oral) came out at 42.7%. Moreover, the values for the AUC(0-t) in data set [1] (setting [12]), in data set [1] (setting [15]) and in data set [1] (setting [18]) were 9.32 ± 0.68 ng·h/mL, 6.13 ± 0.8 ng·h/mL and 6.53 ± 2.34 ng·h/mL, respectively. The Cmax in data set [1] (setting [13]) amounted to 1.12 ± 0.25 ng/mL; in data set [1] (setting [16]) it was 0.56 ± 0.12 ng/mL; in data set [1] (setting [19]) it was 0.75 ± 0.28 ng/mL. Also, the Tmax in data set [1] (setting [14]) amounted to 1.5 h; in data set [1] (setting [17]), 1.8 h; in data set [1] (male, Wistar, rat, plasma, po, oral raw licorice water decoction, read-out: Tmax), 1.5 h. For the same molecule, the “Stability, Average” value in data set [2] (setting [7]) is listed as 93.1%; in data set [2] (setting [8]) it was 95.7%; in data set [2] (setting [9]), 96.4%; in data set [2] (setting [10]), 87.6%; in data set [2] (setting [11]) it was 94.7%; in data set [2] (setting [20]), 85.3%.
Take `O=C1C[C@@H](c2ccc(O[C@@H]3O[C@H](CO)[C@@H](O)[C@H](O)[C@H]3O)cc2)Oc2cc(O)ccc21` [LQ, liquiritin]: the “Cmax lower than in the raw licorice group” value in data set [1] (50% honey-roasting group vs raw licorice group, rat, oral) stood at 53.96%. Moreover, the AUC(0-t) in data set [1] (setting [22]) was 319 ± 50 ng·h/mL; in data set [1] (setting [12]), 479 ± 65.2 ng·h/mL; in data set [1] (setting [18]), 520 ± 94.5 ng·h/mL. For the same molecule, the Cmax in data set [1] (setting [13]) was found to be 203 ± 54.1 ng/mL; in data set [1] (setting [16]), 87.9 ± 8.08 ng/mL; in data set [1] (setting [6]) it was 191.00 ± 80.23 ng/mL. In addition, the “Stability, Average” value in data set [2] (setting [7]) came out at 99.5%; in data set [2] (setting [8]), 90.9%; in data set [2] (setting [9]), 88.3%; in data set [2] (setting [10]), 89.5%; in data set [2] (setting [11]), 96.4%; in data set [2] (setting [20]), 95.6%.
Take `O=C(/C=C/c1ccc(O[C@@H]2O[C@H](CO)[C@@H](O)[C@H](O)[C@H]2O)cc1)c1ccc(O)cc1O` [ILQ, isoliquiritin]: the “Cmax lower than in the raw group” value in data set [1] (setting [21]) came to 48.07%. The “Tmax longer than in the raw group” value in data set [1] (setting [21]) turned out to be 1.75 times. Further, in data set [1] (male, Wistar, in vivo, oral 25% honey-roasting licorice water decoction, read-out: Tmax), the Tmax was 0.7 h. The AUC(0-t) is 260 ± 8.53 ng·h/mL in data set [1] (male, Wistar, rat, in vivo, po, oral 25% honey-roasting licorice water decoction); 246 ± 7.67 ng·h/mL in data set [1] (setting [22]); 257 ± 19.3 ng·h/mL in data set [1] (male, Wistar, rat, in vivo, po, oral raw licorice water decoction). The Cmax in data set [1] (male, Wistar, rat, in vivo, po, oral 25% honey-roasting licorice water decoction, read-out: Cmax) is 24.8 ± 3.63 ng/mL; in data set [1] (male, Wistar, rat, in vivo, po, oral 50% honey-roasting licorice water decoction, read-out: Cmax), 20.6 ± 5.82 ng/mL; in data set [1] (male, Wistar, rat, in vivo, po, oral raw licorice water decoction, read-out: Cmax), 47.8 ± 2.62 ng/mL. Moreover, the “Stability, Average” value amounted to 95.7% in data set [2] (setting [7]); 90.2% in data set [2] (setting [8]); 89.3% in data set [2] (setting [9]); 100.1% in data set [2] (setting [10]); 89.4% in data set [2] (setting [11]); 94.2% in data set [2] (setting [20]).
